The source of these data is patent US20240150293A1, “SPIROCYCLOHEXANE DERIVATIVES, PHARMACEUTICAL COMPOSITIONS CONTAINING THEM AND THEIR USES AS ANTI-APOPTOTIC INHIBITORS” (LES LABORATOIRES SERVIER, priority 2021, published 2024).

Each structure is given as a SMILES string.

The Ki is the equilibrium dissociation constant of an inhibitor or competing ligand from its target.

The target of assay [1] is Cy5-labelled Mcl1 (amino acids 171-321) C286S protein (UniProtKB Q07820) (Homo sapiens (Human), UniProt Q07820, C286S). Put plainly: Inhibition of Mcl-1 by the fluorescence quenching assay (Example A, Method B). The class given is binding. In a few lines: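 Eleven-point compound series incubated 2 h at room temperature with 1 nM Cy5-tagged protein and quencher-labelled PUMA peptide at 10, 20 or 400 nM in HEPES/NaCl/Tween 20, pH 7.4, 5% DMSO. IC50 for 50% fluorescence increase by 4-parameter fit, then Ki derived (complete cKi or estimated eKi).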
Cy5-labelled Mcl1 (amino acids 171-321) C286S protein, sequence (Q07820 171-321 C286S): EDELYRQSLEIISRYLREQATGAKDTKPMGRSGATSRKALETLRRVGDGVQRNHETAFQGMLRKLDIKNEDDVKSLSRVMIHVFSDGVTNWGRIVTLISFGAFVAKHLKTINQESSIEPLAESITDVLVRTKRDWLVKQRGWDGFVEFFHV

Assay [2] has as its system H929 multiple myeloma tumor line. Put plainly: In vitro cytotoxicity, MTT assay (Example B, Method A). In kind it is cell-based. The following applies: Homo sapiens, NCI-H929, 48 h, H929 cells, 48 hours exposure, read-out: C50. As to the method:
The cytotoxicity studies were carried out on the H929 multiple myeloma tumor line.
The cells are distributed onto microplates and exposed to the test compounds for 48 hours. The cell viability is then quantified by a colorimetric assay, the Microculture Tetrazolium Assay (Carmichael et al, Cancer Res. 1987, 47, 939-942).
The results are expressed in C50 which means concentration corresponding to […] of effect/inhibition.
In general terms: Tetrazolium assays rely on reduction of a dye to a coloured formazan, in cell work by metabolically active cells.

Turning to `C[C@@H](COc1ccnc2c1[C@H](C)CC[C@H]2O)CC1=Cc2cc(F)ccc2[C@]12CC[C@@](Nc1cccc(Cl)c1)(C(=O)O)CC2` [Example 770, (1r,4R)-4-(3-chloroanilino)-5′-fluoro-2′-[(2R)-3-{[(5R,8R)-8-hydroxy-5-methyl-5,6,7,8-tetrahydroquinolin-4-yl]oxy}-2-methylpropyl]spiro[cyclohexane-1,1′-indene]-4-carboxylic acid], the Ki in assay [1] is 0.35 nM. Moreover, in assay [2], the IC50 worked out at 90.6 nM.
Regarding `C[C@@H](COc1ccnc2c1[C@H](C)CC[C@H]2O)C[C@H]1Cc2cc(F)ccc2[C@]12CC[C@@](Nc1cccc(Cl)c1)(C(=O)O)CC2` [Example 771, (1r,2′S,4S)-4-(3-chloroanilino)-5′-fluoro-2′-[(2R)-3-{[(5R,8R)-8-hydroxy-5-methyl-5,6,7,8-tetrahydroquinolin-4-yl]oxy}-2-methylpropyl]-2′,3′-dihydrospiro[cyclohexane-1,1′-indene]-4-carboxylic acid], the Ki in assay [1] is 0.176 nM. Also, the IC50 in assay [2] came to 18.3 nM.
For `C[C@@H](COc1ccnc2c1[C@H](C)CC[C@H]2F)CC1=Cc2cc(F)ccc2[C@]12CC[C@@](Nc1cccc(Cl)c1)(C(=O)O)CC2` [Example 772, (1r,4R)-4-(3-chloroanilino)-5′-fluoro-2′-[(2R)-3-{[(5R,8R)-8-fluoro-5-methyl-5,6,7,8-tetrahydroquinolin-4-yl]oxy}-2-methylpropyl]spiro[cyclohexane-1,1′-indene]-4-carboxylic acid], in that order: 3.63 nM and 126 nM.
For `C[C@@H](COc1ccnc2c1[C@H](C)CC[C@H]2C)C[C@H]1Cc2cc(F)ccc2[C@]12CC[C@@](Nc1cccc(Cl)c1)(C(=O)O)CC2` [Example 773, (1r,2′S,4S)-4-(3-chloroanilino)-2′-[(2R)-3-{[(5R,8R)-5,8-dimethyl-5,6,7,8-tetrahydroquinolin-4-yl]oxy}-2-methylpropyl]-5′-fluoro-2′,3′-dihydrospiro[cyclohexane-1,1′-indene]-4-carboxylic acid], in that order: 0.279 nM and 32.2 nM.
For `C[C@@H](COc1ccnc2c1[C@H](C)CCC2)CC1=Cc2cc(F)c(F)cc2[C@]12CC[C@@](Nc1cccc(Cl)c1)(C(=O)O)CC2` [Example 774, (1r,4R)-4-(3-chloroanilino)-5′,6′-difluoro-2′-[(2R)-2-methyl-3-{[(5R)-5-methyl-5,6,7,8-tetrahydroquinolin-4-yl]oxy}propyl]spiro[cyclohexane-1,1′-indene]-4-carboxylic acid], in that order: 1.42 nM and 118 nM.
On to `C[C@@H](COc1ccnc2c1[C@H](C)CCC2)C[C@@H]1Cc2cc(F)c(F)cc2[C@]12CC[C@@](Nc1cccc(Cl)c1)(C(=O)O)CC2` [Example 776, (1r,2′R,4R)-4-(3-chloroanilino)-5′,6′-difluoro-2′-[(2R)-2-methyl-3-{[(5R)-5-methyl-5,6,7,8-tetrahydroquinolin-4-yl]oxy}propyl]-2′,3′-dihydrospiro[cyclohexane-1,1′-indene]-4-carboxylic acid], for which the Ki in assay [1] is 2.28 nM. Further, in assay [2], the IC50 was 227 nM.
For `C[C@@H](COc1ccnc2c1[C@H](C)CCC2)CC1=Cc2cc(Cl)ccc2[C@]12CC[C@@](Nc1cccc(Cl)c1)(C(=O)O)CC2` [Example 777, (1r,4R)-5′-chloro-4-(3-chloroanilino)-2′-[(2R)-2-methyl-3-{[(5R)-5-methyl-5,6,7,8-tetrahydroquinolin-4-yl]oxy}propyl]spiro[cyclohexane-1,1′-indene]-4-carboxylic acid] the same measures were 0.725 nM and 175 nM.
For `C[C@@H](COc1ccnc2c1[C@H](C)CCC2)C[C@@H]1Cc2cc(Cl)ccc2[C@]12CC[C@@](Nc1cccc(Cl)c1)(C(=O)O)CC2` [Example 779, (1r,2′R,4R)-5′-chloro-4-(3-chloroanilino)-2′-[(2R)-2-methyl-3-{[(5R)-5-methyl-5,6,7,8-tetrahydroquinolin-4-yl]oxy}propyl]-2′,3′-dihydrospiro[cyclohexane-1,1′-indene]-4-carboxylic acid] the same measures were 0.423 nM and 143 nM.
For `C[C@@H](COc1ccnc2c1[C@@H](C)CCC2)C[C@H]1Cc2ccc(O)cc2[C@]12CC[C@@](Nc1cccc(Cl)c1)(C(=O)O)CC2` [Example 780, (1r,2′S,4S)-4-(3-chloroanilino)-6′-hydroxy-2′-[(2R)-2-methyl-3-{[(5S)-5-methyl-5,6,7,8-tetrahydroquinolin-4-yl]oxy}propyl]-2′,3′-dihydrospiro[cyclohexane-1,1′-indene]-4-carboxylic acid], in that order: 8.89 nM and 641 nM.
Regarding `COc1ccc2c(c1)[C@]1(CC[C@@](Nc3cccc(Cl)c3)(C(=O)O)CC1)[C@@H](C[C@@H](C)COc1ccnc3c1[C@@H](C)CCC3)C2` [Example 783, (1r,2′S,4S)-4-(3-chloroanilino)-6′-methoxy-2′-[(2R)-2-methyl-3-{[(5S)-5-methyl-5,6,7,8-tetrahydroquinolin-4-yl]oxy}propyl]-2′,3′-dihydrospiro[cyclohexane-1,1′-indene]-4-carboxylic acid], the Ki in assay [1] is 10.3 nM. The IC50 in assay [2] stood at 430 nM.
For `C[C@@H](COc1ccnc2c1[C@H](C)CCC2)C[C@H]1Cc2ccc(Oc3ccccc3)cc2[C@]12CC[C@@](Nc1cccc(Cl)c1)(C(=O)O)CC2` [Example 793, (1r,2′S,4S)-4-(3-chloroanilino)-2′-[(2R)-2-methyl-3-{[(5S)-5-methyl-5,6,7,8-tetrahydroquinolin-4-yl]oxy}propyl]-6′-phenoxy-2′,3′-dihydrospiro[cyclohexane-1,1′-indene]-4-carboxylic acid] the same measures were 17.9 nM and 857 nM.
For `C[C@@H](COc1ccnc2c1[C@@H](C)CCC2)C[C@H]1Cc2cc(Cl)c(O)cc2[C@]12CC[C@@](Nc1cccc(Cl)c1)(C(=O)O)CC2` [Example 814, (1r,2′S,4S)-5′-chloro-4-(3-chloroanilino)-6′-hydroxy-2′-[(2R)-2-methyl-3-{[(5S)-5-methyl-5,6,7,8-tetrahydroquinolin-4-yl]oxy}propyl]-2′,3′-dihydrospiro[cyclohexane-1,1′-indene]-4-carboxylic acid] the same measures were 3.42 nM and 135 nM.
Regarding `C[C@@H](COc1ccnc2c1[C@H](C)CCC2)C[C@@H]1Cc2cc3c(cc2[C@]12CC[C@@](Nc1cccc(Cl)c1)(C(=O)O)CC2)OCO3` [Example 841, (1r,4R,6′R)-4-(3-chloroanilino)-6′-[(2R)-2-methyl-3-{[(5R)-5-methyl-5,6,7,8-tetrahydroquinolin-4-yl]oxy}propyl]-6′,7′-dihydro-2′H-spiro[cyclohexane-1,5′-indeno[5,6-d][1,3]dioxole]-4-carboxylic acid], the Ki in assay [1] was determined as 0.172 nM. Further, the IC50 in assay [2] was determined as 76.6 nM.
For `C[C@@H](COc1ccnc2c1[C@@H](C)CCC2)C[C@H]1Cc2cc3c(cc2[C@]12CC[C@@](Nc1cccc(Cl)c1)(C(=O)O)CC2)OCO3` [Example 842, (1r,4S,6′S)-4-(3-chloroanilino)-6′-[(2R)-2-methyl-3-{[(5S)-5-methyl-5,6,7,8-tetrahydroquinolin-4-yl]oxy}propyl]-6′,7′-dihydro-2′H-spiro[cyclohexane-1,5′-indeno[5,6-d][1,3]dioxole]-4-carboxylic acid], in that order: 1.55 nM and 81 nM.
For `Cc1cc2c(cc1C)[C@]1(CC[C@@](Nc3cccc(Cl)c3)(C(=O)O)CC1)[C@H](C[C@@H](C)COc1ccnc3c1[C@H](C)CCC3)C2` [Example 855, (1r,2′R,4R)-4-(3-chloroanilino)-5′,6′-dimethyl-2′-[(2R)-2-methyl-3-{[(5R)-5-methyl-5,6,7,8-tetrahydroquinolin-4-yl]oxy}propyl]-2′,3′-dihydrospiro[cyclohexane-1,1′-indene]-4-carboxylic acid] the same measures were 0.703 nM and 50.8 nM.
For `CC(=O)c1ccc2c(c1)[C@]1(CC[C@@](Nc3cccc(Cl)c3)(C(=O)O)CC1)C(C[C@@H](C)COc1ccnc3c1[C@H](C)CCC3)=C2` [Example 856, (1r,4R)-6′-acetyl-4-(3-chloroanilino)-2′-[(2R)-2-methyl-3-{[(5R)-5-methyl-5,6,7,8-tetrahydroquinolin-4-yl]oxy}propyl]spiro[cyclohexane-1,1′-indene]-4-carboxylic acid] the same measures were 0.864 nM and 74.8 nM.
Regarding `CC(O)c1ccc2c(c1)[C@]1(CC[C@@](Nc3cccc(Cl)c3)(C(=O)O)CC1)C(C[C@@H](C)COc1ccnc3c1[C@H](C)CCC3)=C2` (stereo partly drawn) [Example 857, (1r,4R)-4-(3-chloroanilino)-6′-(1-hydroxyethyl)-2′-[(2R)-2-methyl-3-{[(5R)-5-methyl-5,6,7,8-tetrahydroquinolin-4-yl]oxy}propyl]spiro[cyclohexane-1,1′-indene]-4-carboxylic acid], the Ki in assay [1] was 0.169 nM. In addition, the IC50 in assay [2] was 143 nM.
For `CC(=O)c1ccc2c(c1)[C@]1(CC[C@@](Nc3cccc(Cl)c3)(C(=O)O)CC1)[C@@H](C[C@@H](C)COc1ccnc3c1[C@H](C)CCC3)C2` [Example 858, (1r,2′S,4S)-6′-acetyl-4-(3-chloroanilino)-2′-[(2R)-2-methyl-3-{[(5R)-5-methyl-5,6,7,8-tetrahydroquinolin-4-yl]oxy}propyl]-2′,3′-dihydrospiro[cyclohexane-1,1′-indene]-4-carboxylic acid] the same measures were 0.0699 nM and 50.6 nM.
